Measured values published in US8815809B2, “Cysteine protease inhibitors” (Medivir UK Ltd, priority 2009, dated 2014).

Columns and labels:
Assay type in all cases: biochemical
[1] = target: T1, human cathepsin S (Homo sapiens, UniProt P25774); experiment: Cathepsin S Ki determination; conditions: baculovirus-expressed human cathepsin S, boc-Val-Leu-Lys-AMC substrate, pH 6.5; read-out: Ki Cat. S
T1 construct: made in house; host or cells: baculovirus expression system
Description: The assay uses baculovirus-expressed human cathepsin S and the boc-Val-Leu-Lys-AMC fluorescent substrate available from Bachem in a 384 well plate format, in which 7 test compounds can be tested in parallel with a positive control comprising a known cathepsin S inhibitor comparator.
280 μL/well of 12.5% DMSO are added to rows B-H of two columns of a 96 deep well polypropylene plate. 70 μL/well of substrate is added to row A. 2×250 μL/well of assay buffer (100 mM Na phosphate, 100 mM NaCl, pH 6.5) is added to row A, mixed, and double diluted down the plate to row H.
100 μL/well of assay buffer is added to columns 2-5 and 7-12 of 4 rows of a 96 well V bottom polypropylene plate. 200 μL/well of assay buffer is added to columns 1 and 6.
The first test compound prepared in DMSO is added to column 1 of the top row, typically at a volume to provide between 10 and 30 times the initially determined rough K1. The rough K, is calculated from a preliminary run in which 10 μL/well of 1 mM boc-VLK-AMC (1/10 dilution of 10 mM stock in DMSO diluted into assay buffer) is dispensed to rows B to H and 20 μl/well to row A of a 96 well Microfluor™ plate. 2 μl of each 10 mM test compound is added to a separate well on row A, columns 1-10. Add 90 μl assay buffer containing 1 mM DTT and 2 nM cathepsin S to each well of rows B-H and 180 μl to row A. Mix row A using a multichannel pipette and double dilute to row G. Mix row H and read in the fluorescent spectrophotometer.
The second test compound is added to column 6 of the top row, the third to column 1 of the second row etc. Add 1 μL of comparator to column 6 of the bottom row. Mix column 1 and double dilute to column 5. Mix column 6 and double dilute to column 10.
Using an 8-channel multistepping pipette set to 5×10 μL, distribute 10 μL/well of substrate to the 384 well assay plate. Distribute the first column of the substrate dilution plate to all columns of the assay plate starting at row A. The tip spacing of the multichannel pipette will correctly skip alternate rows. Distribute the second column to all columns starting at row B.
Using a 12-channel multistepping pipette set to 4×10 μL, distribute 10 μL/well of inhibitor to the 384 well assay plate. Distribute the first row of the inhibitor dilution plate to alternate rows of the assay plate starting at A1. The tip spacing of the multichannel pipette will correctly skip alternate columns. Similarly, distribute the second, third and fourth rows to alternate rows and columns starting at A2, B1 and B2 respectively.
Mix 20 mL assay buffer and 20 μL 1M DTT. Add sufficient cathepsin S to give 2 nM final concentration.
Using the a distributor such as a Multidrop 384, add 30 μL/well to all wells of the assay plate and read in fluorescent spectrophotometer such as an Ascent.
Fluorescent readings, (excitation and emission wavelengths 390 nm and 460 nm respectively, set using bandpass filters) reflecting the extent of enzyme cleavage of the fluorescent substrate, […] the inhibitor, are linear rate fitted for each well.
Fitted rates for all wells for each inhibitor are fitted to the competitive inhibition equation using SigmaPlot 2000 to determine V, Km and Ki values.
(§1) Potential inhibitors are screened using the above assay with variable concentrations of test compound. Reactions were initiated by addition of enzyme to buffered solutions of substrate and inhibitor. Ki values were calculated according to equation 1.
(§2) [formula] where v0 is the velocity of the reaction, V is the maximal velocity, S is the concentration of substrate with Michaelis constant of KM, and I is the concentration of inhibitor.

[2] = target: human cathepsin L (Homo sapiens, UniProt P07711); experiment: Cathepsin L Ki; conditions: H-D-Val-Leu-Lys-AMC substrate, pH 5.5, read-out: Ki Cat. L
Sequence of human cathepsin L (P07711 114-333): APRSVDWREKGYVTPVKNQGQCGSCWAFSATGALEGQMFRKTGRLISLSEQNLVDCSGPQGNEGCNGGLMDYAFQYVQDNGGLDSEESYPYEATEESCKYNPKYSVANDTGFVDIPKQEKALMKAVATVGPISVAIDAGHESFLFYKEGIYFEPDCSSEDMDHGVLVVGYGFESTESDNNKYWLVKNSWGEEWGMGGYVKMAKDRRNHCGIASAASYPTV
Description: The procedure above with the following amendments is used for the determination of Ki for cathepsin L.
The enzyme is commercially available human cathepsin L (for example Calbiochem). The substrate is H-D-Val-Leu-Lys-AMC available from Bahcem. The assay buffer is 100 mM sodium acetate 1 mM EDTA, pH5.5) The DMSO stock (10 mM in 100% DMSO) is diluted to 10% in assay buffer. Enzyme is prepared at 5 nM concentration in assay buffer plus 1 mM dithiothreitol just before use. 2 μL of 10 mM inhibitor made up in 100% DMSO is dispensed into row A. 10 μL of 50 μM substrate (=1/200 dilution of 10 mM stock in DMSO, diluted in assay buffer).
as §1, §2

[3] = target: T2, cathepsin K (Homo sapiens, UniProt P43235); experiment: Determination of cathepsin K proteolytic catalytic activity (Ki); conditions: human recombinant enzyme, H-D-Ala-Leu-Lys-AMC substrate; read-out: Ki Cat. K
T2 construct: made in house; host or cells: not fixed: E. coli, Pichia or Baculovirus systems are named as options
T2 sequence (P43235 115-329): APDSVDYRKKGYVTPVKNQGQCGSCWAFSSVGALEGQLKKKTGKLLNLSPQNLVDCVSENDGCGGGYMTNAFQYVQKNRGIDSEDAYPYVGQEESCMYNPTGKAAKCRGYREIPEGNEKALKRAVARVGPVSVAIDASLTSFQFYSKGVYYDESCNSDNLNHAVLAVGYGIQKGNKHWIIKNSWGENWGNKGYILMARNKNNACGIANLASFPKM
Description: Convenient assays for cathepsin K are carried out using human recombinant enzyme, such as that described in PDB.
The recombinant cathepsin K can be expressed in a variety of commercially available expression systems including E. coli, Pichia and Baculovirus systems. The purified enzyme is activated by removal of the prosequence by conventional methods.
Standard assay conditions for the determination of kinetic constants used a fluorogenic peptide substrate, typically H-D-Ala-Leu-Lys-AMC, and were determined in either 100 mM Mes/Tris, pH 7.0 containing 1 mM EDTA and 10 mM 2-mercaptoethanol or 100 mM Na phosphate, imM EDTA, 0.1% PEG4000 pH 6.5 or 100 mM Na acetate, pH 5.5 containing 5 mM EDTA and 20 mM cysteine, in each case optionally with […] as stabiliser. The enzyme concentration used was 5 nM. The stock substrate solution was prepared at 10 mM in DMSO. Screens were carried out at a fixed substrate concentration of 60 μM and detailed kinetic studies with doubling dilutions of substrate from 250 μM. The total DMSO concentration in the assay was kept below 3%. All assays were conducted at ambient temperature. Product fluorescence (excitation at 390 nm, emission at 460 nm) was monitored with a Labsystems Fluoroskan Ascent fluorescent plate reader. Product progress curves were generated over 15 minutes following generation of AMC product.
as §1, §2

T1 sequence (P25774 115-331): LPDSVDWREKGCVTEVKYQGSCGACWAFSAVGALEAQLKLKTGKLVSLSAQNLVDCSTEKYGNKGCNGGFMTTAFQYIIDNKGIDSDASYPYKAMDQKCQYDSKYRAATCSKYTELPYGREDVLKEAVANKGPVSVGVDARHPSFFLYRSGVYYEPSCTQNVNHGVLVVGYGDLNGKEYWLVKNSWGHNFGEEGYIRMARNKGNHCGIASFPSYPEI

Compound	Ki [1]	Ki [2]	Ki [3]
CC(C)(C)OC(=O)N[C@@H](CC1(F)CCCC1)C(=O)NC1(C(=O)C(=O)Nc2cc[nH]n2)CCC1 [Example 57, {2-(1-Fluoro-cyclopentyl)-1-[1-(1H-pyrazol-3-ylaminooxalyl)-cyclobutylcarbamoyl]-ethyl}-carbamic acid tert-butyl ester]	0.79 nM	720 nM	290 nM
COC1CC(NC(=O)[C@H](CC2(F)CCCC2)NC(=O)OC(C)(C)C)(C(=O)C(=O)Nc2ccn(C)n2)C1 (stereo partly drawn) [Example 49]	0.65 nM	660 nM	240 nM
CC(C)(C)OC(=O)N[C@@H](CC1(F)CCCC1)C(=O)NC1(C(=O)C(=O)NC2CC2)CC(F)C1 (stereo partly drawn) [Example 22]	14 nM	25000 nM	3800 nM
Cn1ccc(NC(=O)C(=O)C2(NC(=O)[C@H](CC3(F)CCCC3)NC(=O)OC(C)(C)C)CCC2)n1 [Example 52]	0.4 nM	270 nM	98 nM
CCOC(=O)NC(CC(C)(C)C)C(=O)NC1(C(=O)C(=O)Nc2ccn(C)n2)CC(F)C1 (stereo not drawn) [Example 4]	11 nM	3300 nM	430 nM
CC1(C[C@H](NC(=O)OC(C)(C)C)C(=O)NC2(C(=O)C(=O)NC3CC3)CCC2)CCCC1 [Example 24]	7.8 nM	10000 nM	4400 nM
Cc1csc(NC(=O)C(=O)C2(NC(=O)[C@H](CC3(C)CCCC3)NC(=O)OC(C)(C)C)CCC2)n1 [Example 20]	30 nM	> 200000 nM	95000 nM
CC(C)OC(=O)NC(CC1(F)CCCC1)C(=O)NC1(C(=O)C(=O)Nc2ccn(C)n2)CC(F)C1 (stereo not drawn) [Example 31]	1.8 nM	1200 nM	410 nM
Cn1ccc(NC(=O)C(=O)C2(NC(=O)[C@H](CC3(F)CCCC3)NC(=O)OC3COC3)CCC2)n1 [Example 59, {2-(1-Fluoro-cyclopentyl)-1-[1-(1-methyl-1H-pyrazol-3-ylaminooxalyl)-cyclobutylcarbamoyl]-ethyl}-carbamic acid oxetan-3-yl ester]	2.2 nM	2100 nM	340 nM
CCOC(=O)NC(CC1(F)CCCC1)C(=O)NC1(C(=O)C(=O)Nc2ccn(C)n2)CC(OC)C1 (stereo not drawn) [Example 68]	1.1 nM	2400 nM	640 nM
COC(=O)N[C@@H](CC1(C)CCCC1)C(=O)N[C@]1(C(=O)C(=O)Nc2ccn(C)n2)C[C@@H](F)C1 [Example 1]	3.6 nM	4800 nM	1100 nM
COC1CC(NC(=O)[C@H](CC2(F)CCCC2)NC(=O)OC(C)(C)C)(C(=O)C(=O)Nc2ccn(C)n2)C1 (single isomer, unassigned) [Example 73, {2-(1-Fluoro-cyclopentyl)-1-[3-methoxy-1-(1-methyl-1H-pyrazol-3-ylaminooxalyl)-cyclobutylcarbamoyl]-ethyl}-carbamic acid tert-butyl ester]	0.8 nM	1100 nM	250 nM
CCOC(=O)NC(CC1(C)CCCC1)C(=O)NC1(C(=O)C(=O)Nc2ccn(C)n2)CC(OC)C1 (stereo not drawn) [Example 70]	0.7 nM	2100 nM	1400 nM
Cn1cnc(NC(=O)C(=O)C2(NC(=O)[C@H](CC3(C)CCCC3)NC(=O)OC(C)(C)C)CCC2)c1 [Example 11]	1 nM	1100 nM	610 nM
[2H]C([2H])([2H])n1ccc(NC(=O)C(=O)C2(NC(=O)C(CC3(F)CCCC3)NC(=O)OC(C)(C)C)CC(F)C2)n1 (stereo not drawn) [Example 50]	0.65 nM	560 nM	100 nM
Cn1ccc(NC(=O)C(=O)C2(NC(=O)[C@H](CC3(F)CCCC3)NC(=O)OC(C)(C)C)CC(F)(F)C2)n1 [Example 10]	0.55 nM	360 nM	170 nM
Cn1ccc(NC(=O)C(=O)C2(NC(=O)C(CC3CCCC3)NC(=O)OC(C)(C)C)CC(F)C2)n1 (stereo not drawn) [Example 45]	6 nM	850 nM	1100 nM
CCOC(=O)NC(CC1(C)CCCC1)C(=O)NC1(C(=O)C(=O)Nc2ccn(C)n2)CC(F)C1 (stereo not drawn) [Example 8]	1 nM	3300 nM	1200 nM
Cn1ccc(NC(=O)C(=O)C2(NC(=O)C(CC3(C)CCC3)NC(=O)OC(C)(C)C)CC(F)C2)n1 (stereo not drawn) [Example 19]	4.7 nM	330 nM	150 nM
CC(CF)OC(=O)NC(CC1(F)CCCC1)C(=O)NC1(C(=O)C(=O)Nc2ccn(C)n2)CCC1 (stereo not drawn) [Example 56, {2-(1-Fluoro-cyclopentyl)-1-[1-(1-methyl-1H-pyrazol-3-ylaminooxalyl)-cyclobutylcarbamoyl]-ethyl}-carbamic acid 2-fluoro-1-methyl-ethyl ester]	1.8 nM	990 nM	440 nM
CCOC(=O)N[C@@H](CC1(F)CCCC1)C(=O)NC1(C(=O)C(=O)NCCCN2CCN(C)CC2)CCC1 [Example 63]	22 nM	4900 nM	1400 nM
